What follows are molecules tested against T1, RORγ (Homo sapiens, UniProt P51449) (assay: Reporter Gene Assay (RGA): RORγ transactivation of a luciferase reporter in transiently transfected HEK 293 cells). Conditions: HEK 293 cells cotransfected with pGL4.3 luc2P/GAL4UAS and pBIND Gal4DBD hRORC LBD; 20-24 h incubation; luciferase readout.
T1 construct: expressed in transfected cells; host or cells: HEK 293 cells, transiently transfected
T1 sequence (P51449 269-508 limits assumed): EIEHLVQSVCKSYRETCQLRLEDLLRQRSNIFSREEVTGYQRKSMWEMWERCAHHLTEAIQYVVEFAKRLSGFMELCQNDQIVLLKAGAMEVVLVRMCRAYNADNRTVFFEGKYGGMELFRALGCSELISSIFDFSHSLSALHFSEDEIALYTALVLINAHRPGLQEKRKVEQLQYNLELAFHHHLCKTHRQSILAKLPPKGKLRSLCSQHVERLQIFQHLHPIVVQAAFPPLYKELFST
Type: cell-based
Description: Reporter Gene Assay (RGA)
A nuclear receptor transactivation assay is performed to quantitate the ability of test compounds to inhibit RORγ transactivation of a luciferase reporter. […] The system uses transiently transfected HEK 293 cells cotransfected with two plasmids (pGL4.3, luc2P/GAL4UAS/Hygro, and pBIND, Gal4DBD hRORC LBD1-3). The positive control is co-transiently transfected with both plasmids, and the negative control contains the pGL4.3 promoter sequence. Assays are assembled in 384 well plates where transiently transfected cells and test compound at varying concentrations are incubated for 20-24 h. The next day, assays plates are taken out and equilibrated at RT for 20-30 minutes. Bright-Glo™ Luciferase Assay System is used to detect Luciferase production. After addition of Bright GLO detection reagent, the plates are incubated at RT for 20 minutes. The plates are read on an Envision plate reader to measure luminescence signal. The RLU signal is converted to POC relative to control and blank wells.
Compound Dilution Buffer:
Bright Glo Luciferase Assay System: Promega #E2620
Thaw lysis buffer provided in kit, add 100 mL lysis buffer to substrate powder.

Structure (SMILES) | IC50
CCS(=O)(=O)c1ccc(CNc2nc3ncc(-c4c(C)ncnc4C4CC4)nc3n([C@@H](C)C3CC3)c2=O)nc1 [Example 4] | 269 nM
CCS(=O)(=O)c1ccc(CNc2nc3ncc(-c4nccnc4C4CC4)nc3n([C@@H](C)C3CC3)c2=O)nc1 [Example 6] | 454 nM
CC[C@H](C)n1c(=O)c(NCc2ccc(S(=O)(=O)CC)nc2)nc2ncc(-c3c(C)ncnc3C3CC3)nc21 [Example 10] | 2740 nM
CCS(=O)(=O)c1ccc(CNc2nc3nnc(-c4c(C)ncnc4C4CC4)cc3n([C@@H](C)C3CC3)c2=O)nc1 [Example 12] | 2900 nM

The remaining lines, values ahead:

IC50 | Structure (SMILES)
149 nM | CCS(=O)(=O)c1ccc(CNc2nc3ncc(-c4c(OC)ncnc4C4CC4)nc3n([C@@H](C)C3CC3)c2=O)nc1 [Example 3]
274 nM | CCS(=O)(=O)c1ccc(CNc2nc3ncc(-c4c(C)nc(N)nc4C4CC4)nc3n([C@@H](C)C3CC3)c2=O)nc1 [Example 5]
210 nM | CC[C@H](C)n1c(=O)c(NCc2ccc(S(=O)(=O)CC)cn2)nc2ncc(-c3c(OC)ncnc3C3CC3)nc21 [Example 7]
338 nM | CC[C@H](C)n1c(=O)c(NCc2ccc(S(=O)(=O)CC)cn2)nc2ncc(-c3c(C)ncnc3C3CC3)nc21 [Example 8]
1330 nM | CC[C@H](C)n1c(=O)c(NCc2ccc(S(C)(=O)=O)cn2)nc2ncc(-c3c(C)ncnc3C3CC3)nc21 [Example 9]

— patent US11358967B2 (Boehringer Ingelheim International GmbH, priority 2016, dated 2022)
